The values below come from PubChem BioAssay AID1963953.

The test system of this assay is HeLa infected S. Typhimurium SL1344, CFU, 6 h. Put plainly: reduction of bacterial load in infected HeLa – cell-based, colony forming units, SL1344 (AID 1963953). The conditions noted are these: at 20 µM; active compounds read low.

Calls of active or inactive are those of the source.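 The calls were made as follows: active = compounds cutting recovered intracellular Salmonella colonies below 0.7 of the DMSO level; inactive = the rest.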

On to `CCC(C)(C)C(=O)C(=O)N1CCCC[C@H]1C(=O)N[C@H](CCc1ccc(OC)cc1)C(=O)N1[C@@H]2CC[C@H]1CC(Nc1nc(NCCc3ccccc3)nc(N3CCn4ncnc4C3)n1)C2` (stereo not given in full), for which the normalized CFU (DMSO = 1) is 0.47. To `CS(C)=O` belongs 1 (inactive); to `CCC(C)(C)C(=O)C(=O)N1CCCC[C@H]1C(=O)N[C@H](CCc1ccc(OC)cc1)C(=O)N1[C@@H]2CC[C@H]1CC(Nc1nc(NCCc3sc(N)nc3C)nc(N3CCn4ncnc4C3)n1)C2` (stereo not given in full), 0.31. Take `CC(=O)N1[C@@H]2CC[C@H]1CC(Nc1nc(NCCc3sc(N)nc3C)nc(N3CCn4ncnc4C3)n1)C2` (stereo not given in full): the normalized CFU (DMSO = 1) was 0.97 (inactive). The same measure for `CCC(C)(C)C(=O)C(=O)N1CCCC[C@H]1C(=O)N[C@H](CCc1ccc(OC)cc1)C(=O)N1[C@@H]2CC[C@H]1CC(NC(C)=O)C2` (stereo not given in full): 0.77 (inactive).
